Entries after “also recorded” stand apart in the source; their conditions may differ. Residues, ends and D or L forms follow the SMILES beside them.
Tests used:
BAEC = assay: MPO-mediated BAEC injury (cell morphology); type: cell-based, bovine; details: MPO 2.5 μg/ml, H2O2 50 μM
Description: MPO-mediated BAEC Injury: BAEC (passage 6-8) were cultured in 24 well plates in DMEM containing 10% FBS until 70-80% confluent. The cells were washed with Hank's balanced salt solution (HBSS) 3 times and incubated with MPO (2.5 μg/mL) and H2O2±KYC at the concentrations indicated in HBSS for 30 min. Finally, BAEC were examined visually and images captured for permanent record using a Nikon Eclipse microscope (Model TS 100) fitted with a Nikon Digital Sight DS-U2 camera and NIS-Elements F 3.0 imaging software. Images are representative of 3 independent experiments.
KYC protects BAEC from MPO-induced injury. […] BAEC in 96 well were treated with 100 μl of HBSS containing MPO (2.5 μg/ml) and H2O2 (50 μM) for 20 min with or without KYC. Changes in cell morphology were recorded as described in a previous report by others.

MPO [1] = target: T1, MPO (Homo sapiens, UniProt P05164); assay: MPO-catalyzed HOCl production (taurine/TMB assay); type: biochemical; set-up: purchased Lee Biosolutions (St. Louis, Mo.)
T1 sequence (P05164 49-745): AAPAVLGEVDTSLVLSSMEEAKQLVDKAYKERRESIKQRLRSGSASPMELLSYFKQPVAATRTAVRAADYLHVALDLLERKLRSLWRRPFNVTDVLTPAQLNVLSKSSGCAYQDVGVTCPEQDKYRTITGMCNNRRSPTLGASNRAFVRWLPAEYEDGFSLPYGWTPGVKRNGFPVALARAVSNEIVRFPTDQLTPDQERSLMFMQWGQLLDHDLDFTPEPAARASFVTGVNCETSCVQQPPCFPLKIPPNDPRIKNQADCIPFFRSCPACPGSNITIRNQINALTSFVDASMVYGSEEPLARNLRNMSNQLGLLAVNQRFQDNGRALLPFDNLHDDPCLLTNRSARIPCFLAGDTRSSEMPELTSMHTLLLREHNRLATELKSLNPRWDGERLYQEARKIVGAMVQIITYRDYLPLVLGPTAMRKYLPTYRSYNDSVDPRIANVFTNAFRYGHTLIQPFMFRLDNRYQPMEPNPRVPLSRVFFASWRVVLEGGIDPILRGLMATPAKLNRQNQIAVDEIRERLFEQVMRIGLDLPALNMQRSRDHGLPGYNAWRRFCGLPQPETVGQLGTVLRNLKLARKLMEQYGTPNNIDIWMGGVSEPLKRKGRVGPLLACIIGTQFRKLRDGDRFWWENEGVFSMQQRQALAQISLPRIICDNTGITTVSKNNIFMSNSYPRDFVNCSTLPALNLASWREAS
Description: MPO-mediated HOCl Production. MPO (20 nM) was incubated with H2O2 (50 μM), NaCl (150 mM), taurine (5 mM) and increasing concentrations of KYC in phosphate buffer (100 mM, pH 7.4) which also contained diethylene triamine pentaacetic acid (DTPA, 100 μM) to prevent non-specific, divalent metal cation oxidation for 30 min. Reactions were halted by addition of catalase. Chlorotaurine was quantified using the 3,3-,5,5-tetramethylbenzidine (TMB) assay. Briefly, 400 μL of reaction solution was mixed with 100 μL of 2 mM TMB, 100 μM NaI containing 10% dimethylformamide (DMF) in 400 mM acetate buffer (pH 5.4). After 5 min, absorbance (650 nm) was recorded on a UV/Vis spectrophotometer (Agilent Model 8453).
MPO-catalyzed HOCl Production: MPO (20 nM) was incubated with H2O2 (50 μM), NaCl (150 mM), taurine (5 mM) and increasing concentrations of KYC in a phosphate buffer (100 mM, pH 7.4) containing diethylene triamine pentaacetic acid (DTPA, 100 μM) to prevent non-specific, divalent metal cation oxidation for 30 min. Reactions were halted by addition of catalase (2,000 units/mL). Chlorotaurine was quantified using the TMB assay (66). Briefly, 400 μL of reaction solution was mixed with 100 μL of 2 mM TMB, 100 μM NaI containing 10% dimethylformamide (DMF) in 400 mM acetate buffer (pH 5.4). After 5 min, absorbance (650 nm) was recorded on a UV/Vis spectrophotometer (Agilent Model 8453).

MPO [2] = target: T1, MPO; assay: MPO-mediated LDL malondialdehyde (MDA) formation; type: biochemical; set-up: purchased Lee Biosolutions (St. Louis, Mo.); details: increasing concentrations; 37° C., 4 h
Description: MPO-mediated LDL Malondialdehyde (MDA) Formation: Reaction mixtures contained LDL (0.5 mg/mL), NaNO2 (50 μM), H2O2 (50 μM), MPO (50 nM) and increasing concentrations of KYC in a phosphate buffer (100 mM, pH 7.4) containing DTPA (100 μM). After incubation at 37° C. for 4 h, the reactions were stopped by addition of catalase (2,000 units/mL). The formation of MDA was determined according to a published procedure. Briefly, incubation mixtures (containing 25 mM BHT) were adjusted to pH 1.5 and incubated at 60° C. for 80 min to hydrolyze the Schiff Bases formed from MDA and protein. The samples were mixed with 3-fold volume of N-methyl-2-phenylindole (13.4 mM in acetonitrile/methanol (3:1)). After centrifugation (13000 g, 5 min) 330 μL of the supernatants were mixed with 57.5 μL of concentrated HCl and incubated at 45° C. for another 60 min. Finally, after centrifugation (13000 g, 5 min), total MDA in the samples was determined from the absorbance at 586 nm using a UV-Vis spectrophotometer (Agilent Model 8453).

MPO [3] = target: T1, MPO; assay: MPO-mediated nitration of LDL (dot blot); type: biochemical; set-up: purchased Lee Biosolutions (St. Louis, Mo.); details: MPO 50 nM, H2O2 50 μM, NaNO2 50 μM, 37° C., 4 h
Description: MPO-mediated Nitration of LDL: LDL (0.5 mg/mL) was incubated with MPO (50 nM), H2O2 (50 μM), NaNO2 (50 μM) and increasing concentrations of KYC in phosphate buffer (100 mM, pH 7.4) containing DTPA (100 μM) at 37° C. for 4 h. Reactions were stopped by addition of catalase (2,000 units/mL). Formation of NO2Tyr was assessed by dot blot analysis. Briefly, LDL solutions were mixed with 1% SDS and centrifuged (12000 g, 15 min) Aliquots of supernatants were applied to a nitrocellulose membrane with a dot blot apparatus (Biorad model: Bio-Dot). The levels of NO2Tyr were visualized using a rabbit polyclonal anti-NO2Tyr antibody (EMD, Gibbstown, N.J.) and the ECL plus kit from Thermo-Peirce (Rockford, Ill.).

IC50 (MPO [1]; MPO 20 nM, H2O2 50 μM, NaCl 150 mM, taurine 5 mM, 30 min, read-out: IC50 for inhibition of MPO-catalyzed HOCl formation): ~7 µM
MPO-mediated MDA formation in LDL (in words) (MPO [2]): dose-dependently inhibited
NO2Tyr in LDL (in words) (MPO [3]): markedly reduces
Structure (SMILES): CC(=O)N[C@@H](CCCCN)C(=O)N[C@@H](Cc1ccc(O)cc1)C(=O)N[C@@H](CS)C(N)=O [KYC, N-acetyl Lysyltyrosylcysteine Amide] (Ac-Lys-Tyr-Cys-NH2)
BAEC morphology after MPO/H2O2 (in words) (BAEC; 50 μM KYC): almost the same morphology as cultures that were not exposed to MPO
Protection of BAEC from MPO-induced injury (in words) (BAEC; 20 min, increasing KYC): dose-dependently increased protection
Effect on MPO HOCl production at equimolar concentration (in words) (MPO [1]; 12.5 μM): comparable to that of tryptophan; also recorded: significantly more effective
MPO-dependent HOCl production at 25 μM (in words) (MPO [1]; 25 μM peptide): completely inhibited; also recorded: completely ablated

— patent US8937039B2, “Peptide-based peroxidase inhibitors and methods of using same” (The Medical College of Wisconsin, Inc., priority 2009, dated 2015)
